From ChEMBL document CHEMBL4321852, “Structure-Based and Property-Driven Optimization of N-Aryl Imidazoles toward Potent and Selective Oral RORγt Inhibitors” (J Med Chem, 2019) come the findings set out here.

A short description of data set [1]: Lipophilicity of the compound, high-throughput logP using octanol-coated immobilized artificial membranes at pH 7.4. The data set is classed as physicochemical.
Data set [2] is described as follows: Intrinsic clearance in rat liver microsomes. The data set is classed as ADME, Microsome. The conditions noted are these: read-out: CLH. In general terms: Liver microsomes are a subcellular fraction often used to study metabolism.
Data set [3] can be described thus: Distribution coefficient of the compound, high-throughput logD using octanol-buffer at pH 7.4 by LC-MS/MS analysis shake flask method. The class given is physicochemical.
Data set [4] is described as follows: Equilibrium aqueous solubility of the compound in pH 6.8 solution. The class given is physicochemical. The conditions noted are these: aqueous pH 6.8 solution.
A short description of data set [5]: Oral bioavailability in Sprague-Dawley rat at 3 mg/kg. The class given is ADME, organism-based. The conditions noted are these: in vivo.
The nature of data set [6]: Clearance in Sprague-Dawley rat at 1 mg/kg, iv. The data set is classed as ADME, organism-based. The conditions noted are these: in vivo.
Data set [7] can be described thus: Inhibition of RORgammat in rat CD4+ T-cells polarized with Th17 cytokine mix assessed as inhibition of IL-17 secretion.
The nature of data set [8]: Inverse agonist activity at RORgammat in rat whole blood assessed as reduction in Con A/IL-23-stimulated IL-17 secretion after 72 hrs by ELISA. (ELISA stands for enzyme-linked immunosorbent assay.)
The nature of data set [9]: Dose normalized AUC in Sprague-Dawley rat at 3 mg/kg, po. The conditions noted are these: in vivo. The data set is classed as ADME, organism-based.
A short description of data set [10]: Tmax in Sprague-Dawley rat at 3 mg/kg, po. The class given is ADME, organism-based. The conditions noted are these: in vivo.
A short description of data set [11]: Terminal half life in Sprague-Dawley rat at 1 mg/kg, iv. The data set is classed as ADME, organism-based. The conditions noted are these: in vivo, read-out: beta t1/2 (converted).
Data set [12] in a line: Volume of distribution at steady state in Sprague-Dawley rat at 1 mg/kg, iv. The conditions noted are these: in vivo, read-out: Vdss. The data set is classed as ADME, organism-based.
Data set [13] is described as follows: Dose normalized Cmax in Sprague-Dawley rat at 3 mg/kg, po. The class given is ADME, organism-based. The conditions noted are these: in vivo.
Data set [14] can be described thus: Dose normalized AUC in Sprague-Dawley rat at 1 mg/kg, iv. The data set is classed as ADME, organism-based. The conditions noted are these: in vivo.
The next data set addresses Cytochrome P450 3A4 (Homo sapiens, UniProt P08684). In words: Time dependent inhibition of CYP3A4 (unknown origin). The class given is ADME. Also noted: concentration or dose not given beside the values.

Molecules are shown by their SMILES. Values after ≈ are worked out from the molar mass of the structure shown.

Cytochrome P450 3A4, sequence (P08684 whole entry): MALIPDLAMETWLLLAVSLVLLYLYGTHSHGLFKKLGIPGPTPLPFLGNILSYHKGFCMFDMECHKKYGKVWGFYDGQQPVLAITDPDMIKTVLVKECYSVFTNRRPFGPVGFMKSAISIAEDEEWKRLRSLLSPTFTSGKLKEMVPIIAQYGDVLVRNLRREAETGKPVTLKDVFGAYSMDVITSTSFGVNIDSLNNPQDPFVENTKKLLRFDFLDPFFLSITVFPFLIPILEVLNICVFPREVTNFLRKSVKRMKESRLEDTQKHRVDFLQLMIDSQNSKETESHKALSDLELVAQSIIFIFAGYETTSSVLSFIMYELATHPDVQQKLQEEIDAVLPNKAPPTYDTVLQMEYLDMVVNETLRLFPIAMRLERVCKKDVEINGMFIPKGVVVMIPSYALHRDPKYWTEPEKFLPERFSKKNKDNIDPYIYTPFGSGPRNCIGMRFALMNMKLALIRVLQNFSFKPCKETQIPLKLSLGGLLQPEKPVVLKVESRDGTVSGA

In the case of `CC(C)OC(=O)[C@H](C)N(C(=O)c1ccco1)c1c(Cl)cccc1Cl`, the logD in [1] is 4.1.
With `Cc1c(C(F)(F)F)nc(-c2ccc(Cl)o2)n1-c1c(Cl)ccc(N2CC(c3nnn[nH]3)C2)c1Cl`, the microsomal CLint in data set [2] came out at 49 µL/min/mg. The log distribution coefficient (logD) in data set [1] and in [3] was 2.5 throughout. In data set [4], the solubility (thermodynamic) was above 1000 µM.
Consider `Cc1c(C(F)(F)F)nc(-c2ccc(Cl)o2)n1-c1c(Cl)ccc(N2CC(C(N)=O)C2)c1Cl` (single isomer, unassigned; atropisomer), for which, in data set [2], the microsomal CLint worked out at 169 µL/min/mg. Besides, the logD in data set [1] and in data set [3] was 4.9 each time. Besides, the thermodynamic solubility in data set [4] worked out at 40 µM (≈ 19.7 µg/mL).
`CCOC(=O)C(C)N(C(=O)c1cccs1)c1c(C)cccc1Cl` (racemic): the logD in [1] stood at 3.6.
Regarding `Cc1c(C(F)(F)F)nc(-c2ccc(Cl)o2)n1-c1c(Cl)ccc(N2CC(C(=O)O)C2)c1Cl` (single isomer, unassigned; atropisomer), the bioavailability in data set [5] was 80%. Moreover, the microsomal CLint in data set [2] was determined as 56 µL/min/mg. This molecule came in with a clearance in data set [6] of 30 mL/min/kg. The IC50 in data set [7] worked out at 1690 nM; in [8], 4510 nM. The logD in data set [1] and in data set [3] was 2.4 throughout. Besides, the AUC/dose in [9] was 945 nM·h; in [14] it was 1179 nM·h. Also, the Tmax in data set [10] was determined as 78 min. In addition, the half-life in data set [11] was 276 min. In data set [12], the Vd was found to be 4 L/kg. The molecule also had a Cmax/dose in [13] of 181 nM. The molecule also gave a thermodynamic solubility in [4] above 1000 µM. Besides, the K on Cytochrome P450 3A4 turned out to be 0.047 min⁻¹.
In the case of `CC(C)Cc1cn(-c2c(C#N)cccc2C#N)c(-c2cnco2)n1`, in data set [2], the microsomal CLint stood at 153 µL/min/mg. The logD in data set [1] and in data set [3] was 2 throughout. In [4], this molecule showed a thermodynamic solubility of 350 µM (≈ 111 µg/mL).
On to `Cc1c(CC(C)C)nc(-c2ccc(Cl)o2)n1-c1c(Cl)ccc(N2CC(C(=O)O)C2)c1Cl` (single isomer, unassigned; atropisomer), for which the bioavailability in [5] came out at 45%. Moreover, in data set [2], the microsomal CLint was determined as 222 µL/min/mg. The molecule also came in with a clearance in data set [6] of 228 mL/min/kg. Besides, the logD in [1] and in data set [3] was 3 each time. The AUC/dose in data set [9] turned out to be 70 nM·h; in [14] it was 156 nM·h. The Tmax in [10] was 36 min. Moreover, the half-life in data set [11] was 12 min. The Vd in data set [12] was 3.6 L/kg. For the same molecule, the Cmax/dose in data set [13] was found to be 166 nM. The molecule further yielded a solubility (thermodynamic) in data set [4] of 690 µM (≈ 333 µg/mL).
As for `Cc1c(C(F)(F)F)nc(-c2ccc(Cl)o2)n1-c1c(Cl)cccc1Cl`, the microsomal CLint in data set [2] turned out to be 722 µL/min/mg. Also, the logD in data set [1] and in data set [3] was 6.3 throughout. The thermodynamic solubility in data set [4] is below 4 µM.
In the case of `Cc1c(C2(C(F)(F)F)CC2)nc(-c2ccc(Cl)o2)n1-c1c(Cl)ccc(NCC(C)(C)C(=O)O)c1Cl` (single isomer, unassigned; atropisomer), the IC50 came out at 306 nM in data set [7] and 79 nM in data set [8]. The logD in data set [3] is 3.2. Further, at Cytochrome P450 3A4, the K turned out to be 0.011 min⁻¹.
Regarding `Cc1c(C(F)(F)F)nc(-c2ccc(Cl)o2)n1-c1c(Cl)ccc(N2CC(CC(=O)O)C2)c1Cl`, the values for the IC50 in data set [7] and in data set [8] were 869 nM and 696 nM, respectively. This molecule also gave a logD in data set [3] of 2.5. On Cytochrome P450 3A4, this molecule yielded a K above 0.1 min⁻¹.
Take `Cc1c(CC(C)C)nc(-c2ccco2)n1-c1c(Cl)cccc1Cl`: in [2], the microsomal CLint is 693 µL/min/mg. The IC50 is 325 nM in [7] and 294 nM in data set [8]. The logD in [1] and in data set [3] was above 6.9 each time. Besides, the thermodynamic solubility in data set [4] is below 4 µM.
As for `Cc1c(Cc2ccccc2)nc(-c2ccco2)n1-c1c(Cl)cccc1Cl`, the IC50 in data set [7] came out at 56 nM; in data set [8] it was 82 nM. Besides, the logD in data set [1] is above 6.9.
For `N#Cc1cccc(C#N)c1-n1cc(C2CC2)nc1-c1cnco1`, the microsomal CLint in [2] worked out at 33 µL/min/mg. Besides, the logD in [1] and in data set [3] was 1.1 throughout. In data set [4], the thermodynamic solubility is above 1000 µM.

The term logD denotes the decadic logarithm of the distribution of all forms, ionised or not, between an organic phase and buffer at a given pH. As usually defined, the solubility (thermodynamic) is the concentration in solution at equilibrium with solid. A word on the bioavailability: it is the share of a dose that reaches the circulation, judged against a reference dose that is usually intravenous. A word on the clearance: it is the rate of elimination divided by the concentration. A word on the IC50: it is the concentration that inhibits the measured activity by half. What is called Tmax is the time from dosing to the highest level.
